Test results published in patent US20210393645A1, “TREATMENT FOR PROGRESSIVE MULTIPLE SCLEROSIS” (UTI LIMITED PARTNERSHIP, priority 2016, published 2021).
“Also recorded” adds a separate entry of the source. Where a name gives a salt, the structure may show the parent alone. Read-outs that look alike come from different tables or passages of the source.

Tests used:
T-cells = assay: Proliferation of T-lymphocytes (3H-thymidine) in anti-CD3/anti-CD28 activated splenocytes; type: cell-based, mouse; conditions: for inhibition at 10 µM: Mus musculus, T-cell, 72 h, read-out: mean reduction of 3H-thymidine incorporation (T-cell proliferation); for toxic effects in the T-cell proliferation test: data not shown
Protocol: A previously published protocol was used for isolating and activating T-cells (Keough et al., Nature Comm 7:11312, 2016). Spleens from female C57B16 mice were harvested and after mechanical dissociation the cell suspension was passed through a 70 μm cell strainer and separated by Ficoll gradient (1800 RPM, 30 min). Splenocytes were plated (2.5×10^5 cells in 100 μl/well) in anti-CD3 antibody coated 96-well plates (1,000 ng m1^−1 plate-bound anti-CD3 and 1,000 ng m1^−1 anti-CD28 suspended in media) to activate T-cells. Directly before plating, wells were treated with respective drugs in a final concentration of 10 μM. Cells were cultured in RPMI 1640 medium, supplemented with 10% FBS, 1 μM sodium pyruvate, 2 mM L-alanyl-L-glutamine, 1% penicillin/streptomycin, 1% HEPES and 0.05 mM 2-mercaptoethanol (all supplements were from Invitrogen). After 48 h, ^3H-thymidine was added in a concentration of 1 μCi per well, and cells were harvested after 24 h on filter mats. Mats were then evaluated for radioactivity (counts per minute) using a liquid scintillation counter.

microglia = conditions: shown previously; cited from earlier work
human neurons [1] = assay: Iron (FeSO4) mediated neurotoxicity screening, MAP-2 positive neurons counted; type: cell-based; conditions: for viability at 10 µM: Homo sapiens, Neuron, read-out: Drug % control (mean): number of neurons normalized to untreated control
How it was run: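 Fetal human neurons (15-20 wk), plated with cytosine arabinoside, were pre-incubated 1 h with compounds (10 mM DMSO stocks) before FeSO4 at 25-50 μM final. Cells fixed a day later; MAP-2 immunostaining plus Hoechst nuclei imaged automatically, sites per well averaged; quadruplicates.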

human neurons [2] = assay: Mitochondrial damage to neurons induced by rotenone; type: cell-based; conditions: rotenone 10 μM, drug 10 μM
Protocol: Human neurons were isolated from brain tissues of therapeutically aborted 15-20 week old fetuses, in accordance with ethics approval of the University of Calgary ethics committee, after written informed consent of the pregnant donors. Neurons were isolated as previously described (Vecil et al., 2000) brain specimens were washed in phosphate buffered saline (PBS) to remove blood, followed by removal of meninges. […] Thereafter, the digestion was stopped by addition of 4 ml fetal calf serum (FCS). The solution was filtered through a 132 μm filter and centrifuged (three times, 1,200 rpm, 10 min). Cells were cultured in feeding medium of minimal essential medium (MEM) supplemented with 10% fetal bovine serum (FBS), 1 μM sodium pyruvate, 10 μM glutamine, 1× non-essential amino acids, 0.1% dextrose and 1% penicillin/streptomycin (all culture supplements from Invitrogen, Burlington, Canada). […] For experiments, the neuron-enriched cultures were retrypsinized and cells were plated in poly-L-ornithine pre-coated 96-well plates at a density of 100,000 cells/well in 100 μl of the complete medium supplemented with cytosine arabinoside. […] All conditions were performed in quadruplicates. A day later cells were fixed using 4% paraformaldehyde (PFA) and stored in PBS in 4° C.
The iron stock solution was prepared using 27.8 mg iron(II) sulfate heptahydrate (FeSO4) (Sigma-Aldrich, Oakville, Canada), 10 μl of 17.8M sulfuric acid and 10 ml deionized distilled water. After filtering with a 0.2 μm filter, FeSO4 was added to cells in a final concentration of 25-50 μM in a volume of 50 μl medium to the cells. Rotenone was dissolved in dimethyl sulfoxide (DMSO) and used in a final concentration of 10 μM.

[3] = Hydroxyl radical antioxidant capacity (HORAC) assay; type: biochemical; conditions: vs 12.5 μM gallic acid (=1), 60 min
Protocol: In this assay, hydroxyl radicals generated by a Co(II)-mediated Fenton-like reaction oxidize fluorescein causing loss of fluorescence (Ou et al., J Argricultural Food Chemistry 50:2772-2777, 2002). The presence of an anti-oxidant reduces the loss of fluorescence and this can be monitored every 5 min over a period of 60 min with a Spectra Max Gemini XS plate reader (Molecular Devices, Sunnyvale, Calif., USA) and the software SoftMax Pro version 5. For monitoring fluorescence, we used an excitation wavelength of λ=485 nm and an emission wavelength of λ=520 nm.
The biochemical cell free hydroxyl radical antioxidant capacity (HORAC) assay investigates the prevention of hydroxyl radical mediated oxidation of to fluorescein in comparison to the strong anti-oxidant gallic acid. The generation of hydroxyl radicals by a cobalt-driven Fenton-like reaction oxidizes fluorescein with progressive loss of fluorescence. The presence of an anti-oxidant reduces the loss of fluorescence over time.
We compared the area under the curve of test compounds to that elicited by gallic acid to obtain the gallic acid equivalent (GAE).

human neurons [4] = assay: Live cell imaging of propidium iodide positive neurons challenged with FeSO4; type: cell-based; conditions: FeSO4 50 μM, pre-treatment 1 h
Protocol: Neurons were prepared as described above. Directly after the addition of FeSO4 to healthy neurons, the live cell-permeant Hoechst 33342 (1:2 diluted in AIM-V medium, nuclear blue; ThermoFisher Scientific, Grand Island, NY, USA) and the live cell-impermeable propinium iodide (PI, 1:20 diluted in AIM-V medium) were added in a volume of 20 μI (Sigma-Aldrich). In compromised cells, PI could now diffuse across the plasma membrane. Live cell imaging was performed using the automated ImageXpress® imaging system under controlled environmental conditions (37° C. and 5% CO2). Images were taken from 9 sites per well at baseline and then every 30 min for 12h. After export with MetaXpress®, videos were edited with ImageJ (NIH) in a uniform manner. Nuclei were pseudo colored in cyan, PI-positive cells in red.
Live cell imaging over 12 h supported the neuroprotective effects of drugs. We selected indapamide and desipramine for live imaging studies.

mice = assay: Lysolecithin demyelination of the spinal cord in aging 8-10 months old mice; type: in vivo, mouse; conditions: 20 mg/kg IP immediately after lysolecithin and once per day for 2 days; day 3
Excerpt: Active demyelinating lesions can be found in MS specimens of all ages sampled, including late in life. Indeed, age has been identified to be a factor in the dreaded conversion from relapsing-remitting into secondary progressive MS. Contributing causes for aging-associated worsening in MS that drives progression include the steady loss of axons with longevity of disease, or the deficient repair of myelin in older compared to younger patients. We tested the hypothesis that the same demyelinating injury is more devastating to axons and myelin as the individual ages.
We thus treated aging 8-10 months old mice with intraperitoneal indapamide (20 mg/kg) immediately after lysolecithin demyelination, and once per day at 20 mg/kg for the next 2 days. Spinal cord tissues were taken for histology.

[5] = 1 h after the last of 16 daily clomipramine injections, 25 mg/kg IP
Protocol: One h after the last administration of clomipramine animals were anesthetized with ketamine/xylazine, blood was taken by an intracardiac puncture for serum, and animals were then subjected to PBS-perfusion. […] Cervical and lumbar cords were snap frozen.
For preparation of samples, 100 pl of ice cold methanol were added to 100 pl of serum in each sample after addition of the internal standard maprotiline. The tubes were vortexed and left on ice for 10 min followed by centrifugation at 10,000×g for 4 min. An equal amount of distilled water was added to each supernatant. Spinal cord samples were each homogenized in 10 volumes of ice-cold 80% methanol. Twenty pl of o-phosphoric acid were added to all samples after addition of internal standard (maprotiline). The tubes were vortexed and left on ice for 10 min, followed by centrifugation at 10,000×g for 4 min and an equal volume of distilled water was added to each supernatant. […]
Calibration curves consisting of varying amounts of authentic clomipramine and N-desmethylclomipramine and the same fixed amount of maprotiline as added to the samples being analyzed were run in parallel through the procedure described above and the ratios of clomipramine and N-desmethylclomipramine to maprotiline were used to determine the amount of drug and metabolite in the serum and spinal cord samples.

[6] = drug 10 μM, vs activated splenocytes
[7] = drug 10 μM 1 h before FeSO4 25 or 50 μM, MAP-2 neurons after 24 h

Compound	inhibition at 10 µM (T-cells; [6]) [%]	viability at 10 µM (human neurons [1]; [7]) [%]	neurotoxicity by rotenone (mitochondrial damage) (human neurons [2])	other results
CN(C)CCC=C1c2ccccc2COc2ccccc21 [DOXEPIN HYDROCHLORIDE]	85.3	76.9		microglial activation reduced to (microglia): 46%
CC(CN(C)C)CN1c2ccccc2CCc2ccccc21 (centres unmarked) [TRIMIPRAMINE MALEATE]	54	88.6	reduced neurotoxicity	mean HORAC-GAE (gallic acid equivalents) [3]: 4.2
CN(C)CCCN1c2ccccc2CCc2ccccc21 [IMIPRAMINE HYDROCHLORIDE]	66.4	106		
CC12CC3CC(C)(C1)CC(N)(C3)C2 [MEMANTINE HYDROCHLORIDE]		53.2		increase of T-cell proliferation (T-cells; [6]): 17.5%
CC(CCc1ccccc1)NCC(O)c1ccc(O)c(C(N)=O)c1 (centres unmarked) [LABETALOL HYDROCHLORIDE]	26.8	54.4		neurotoxicity by rotenone (mitochondrial damage) (human neurons [2]; HYDROCHLORIDE): reduced neurotoxicity; also recorded: active against damage to the mitochondrial respiratory chain
O=C1c2c(O)ccc(O)c2C(=O)c2c(NCCNCCO)ccc(NCCNCCO)c21 [MITOXANTHRONE HYDROCHLORIDE]	99.7	52.5		toxic effects in the T-cell proliferation test (T-cells; drug 10 μM): toxic effects
TRIMEPRAZINE TARTRATE				mean reduction of 3H-thymidine incorporation (T-cell proliferation) (T-cells; [6]): 43.3%; Drug % control (mean): number of neurons normalized to untreated control (human neurons [1]; [7]): 73.31%
CC1Cc2ccccc2N1NC(=O)c1ccc(Cl)c(S(N)(=O)=O)c1 (centres unmarked) [INDAPAMIDE]		126	reduced neurotoxicity; also recorded: active against damage to the mitochondrial respiratory chain	effect on T-lymphocyte proliferation (in words) (T-cells): no effect on T-lymphocyte proliferation; protection from FeSO4-mediated neurotoxicity (in words) (human neurons [1]; drug 10 μM, human neurons): strong neuroprotective effects against iron toxicity; mean HORAC-GAE (gallic acid equivalents) [3]: 4.1; number of PI-positive neurons in response to FeSO4 over 12 h (human neurons [4]): significantly attenuated; axonal loss (mice): less axonal loss; lesional malondialdehyde level (mice): reduced lesional malondialdehyde; volume of demyelination (mice): smaller volume of demyelination
CC(CN1c2ccccc2Sc2ccccc21)N(C)C (centres unmarked) [PROMETHAZINE HYDROCHLORIDE]	74.6	105	reduced neurotoxicity	
CN(C)CCCN1c2ccccc2Sc2ccc(Cl)cc21 [CHLORPROMAZINE]	99.4	98.8		toxic effects in the T-cell proliferation test (T-cells; drug 10 μM): toxic effects
CNCCCN1c2ccccc2CCc2ccccc21 [DESIPRAMINE HYDROCHLORIDE]	92.2	84.4	active against damage to the mitochondrial respiratory chain	protection from FeSO4-mediated neurotoxicity (in words) (human neurons [1]): strong protection; mean HORAC-GAE (gallic acid equivalents) [3]: -5.00; number of PI-positive neurons in response to FeSO4 over 12 h (human neurons [4]): significantly attenuated
N#Cc1ccc2c(c1)N(CCCN1CCC(O)CC1)c1ccccc1S2 [PERICIAZINE]	28	82	reduced neurotoxicity	protection from FeSO4-mediated neurotoxicity (in words) (human neurons [1]; drug 10 μM, human neurons): strong protection
N[C@@H](C(=O)N[C@@H]1C(=O)N2C(C(=O)O)=C(Cl)CS[C@H]12)c1ccccc1 [CEFACLOR]	23	89.9		
CNCCCN1c2ccccc2CCc2ccc(Cl)cc21 [desmethylclomipramine]				mean serum concentration [5]: 101 nM; mean spinal cord level [5]: 1.5 µM
OC(c1cc(C(F)(F)F)nc2c(C(F)(F)F)cccc12)C1CCCCN1 (centres unmarked) [MEFLOQUINE]	62.3	47		
